Consider 11 compounds from ChEMBL document CHEMBL1201862, “PubChem BioAssay data set” (2004).

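Cells were grown in 96-well plates and exposed to each compound for 48 hours at five concentrations; endpoints were interpolated linearly between bracketing concentrations, or set to the highest concentration if not reached. The concentration for 50% growth inhibition is given as GI50.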 Active and inactive are the calls of the source. Cut-off read from the data, not from the text of the source: active = GI50 up to about 1.1 µM and inactive = higher.

Holding throughout (experiment): DTP human tumour cell line panel, 48 h
Experiment [1] concerns A498.
The subject of experiment [2] is ACHN.
Experiment [3] deals with COLO 205.
The subject of experiment [4] is HCT-116.
Experiment [5] has as its system HOP-92.
Experiment [6] deals with HT-29.
In experiment [7] the test system is K562.
For experiment [8], the system named is LOX IMVI.
For experiment [9], the system named is M14.
Experiment [10] relates to MDA-MB-231.
In experiment [11] the test system is MOLT-4.
Experiment [12] deals with NCI-H23.
Experiment [13] concerns NCI/ADR-RES.
Experiment [14] deals with OVCAR-5.
Experiment [15] relates to SK-OV-3.
Experiment [16] has as its system SNB-19.
Experiment [17] concerns SR.
For experiment [18], the system named is SW-620.
In experiment [19] the test system is U-251.

Turning to `O=C1c2ccccc2C2(c3ccc(Cl)cc3)NCc3ccccc3CN12` (centres undefined), the GI50 (in general, the concentration that inhibits growth by half) was 19.4 µM (inactive) in experiment [1]; 21.6 µM (inactive) in [2]; 15.1 µM (inactive) in [3]; 10.8 µM (inactive) in experiment [4]; 19.7 µM (inactive) in experiment [5]; 15.2 µM (inactive) in [6]. Besides, the GI50 in experiment [7] was 32.9 µM (inactive); in [8], 16.2 µM (inactive); in experiment [9], 18 µM (inactive); in experiment [10] it was 57.4 µM (inactive); in [11], 24.8 µM (inactive); in [12] it was 17.7 µM (inactive). Also, the GI50 in [13] was 14 µM (inactive); in experiment [14], 21.7 µM (inactive); in [15], 31.2 µM (inactive); in [16], 17 µM (inactive); in [17] it was 24.7 µM (inactive); in experiment [18], 37.2 µM (inactive). Also, in experiment [19], the GI50 was 28.6 µM (inactive).
On to `CCNc1cc2c3c(c1)CCCN3CCC2`, for which the GI50 in experiment [1] is 23.3 µM (inactive); in [2], 19.6 µM (inactive); in experiment [3], 12.1 µM (inactive); in experiment [4], 6.67 µM (inactive); in [5], 12.6 µM (inactive); in [6], 6.78 µM (inactive). Moreover, the GI50 is 4.01 µM (inactive) in experiment [7]; 3.1 µM (inactive) in [8]; 26.4 µM (inactive) in experiment [9]; 6.93 µM (inactive) in experiment [10]; 16.9 µM (inactive) in [11]; 6.31 µM (inactive) in experiment [12]. Besides, the GI50 in experiment [13] is 21 µM (inactive); in experiment [14], 21.6 µM (inactive); in experiment [15] it was 20 µM (inactive); in experiment [16], 16 µM (inactive); in [17] it was 4.22 µM (inactive); in experiment [18], 21.3 µM (inactive). In addition, in experiment [19], the GI50 was 12.3 µM (inactive).
Consider `COC(=O)c1ccc2cc(O)c(O)cc2c1`, for which the GI50 in experiment [1] is 30.8 µM (inactive); in [2], 32.7 µM (inactive); in [3], 37.9 µM (inactive); in [4], 41 µM (inactive); in experiment [5], 32.5 µM (inactive); in experiment [6] it was 37.4 µM (inactive). For the same compound, the GI50 is 33.9 µM (inactive) in experiment [7]; 36.1 µM (inactive) in experiment [8]; 26.3 µM (inactive) in [9]; 60.7 µM (inactive) in experiment [10]; 15.5 µM (inactive) in [11]; 26.5 µM (inactive) in experiment [12]. The GI50 in experiment [13] is 25.6 µM (inactive); in experiment [14], > 88.9 µM (inactive); in experiment [15], 70.8 µM (inactive); in experiment [16], 22.8 µM (inactive); in [17] it was 13.2 µM (inactive); in [18] it was 51.4 µM (inactive). In addition, the GI50 in experiment [19] was 29.6 µM (inactive).
With `CC[C@@]1(O)C(=O)OCc2c1cc1n(c2=O)Cc2c-1nc1ccccc1c2/C=N\NC(=O)C(N)CC(C)C` (some centres undefined), the GI50 in experiment [1] is 0.0314 µM (active); in [2], < 0.01 µM (active); in experiment [3], 0.708 µM (active); in [4], 0.0161 µM (active); in experiment [5], 0.0815 µM (active); in experiment [6], 0.228 µM (active). Besides, the GI50 was 0.0267 µM (active) in [7]; < 0.01 µM (active) in experiment [8]; < 0.0128 µM (active) in experiment [9]; 1.25 µM (inactive) in [10]; < 0.01 µM (active) in experiment [11]; < 0.01 µM (active) in experiment [12]. In addition, the GI50 was 0.0215 µM (active) in experiment [13]; 0.726 µM (active) in experiment [14]; < 0.0212 µM (active) in experiment [15]; < 0.01 µM (active) in experiment [16]; < 0.01 µM (active) in experiment [17]; 0.0887 µM (active) in [18]. In experiment [19], the concentration for 50% growth inhibition (GI50) was < 0.01 µM (active).
With `Cc1cn(CC(=S)NCCc2c[nH]c3ccccc23)c(=O)[nH]c1=O`, the GI50 in [1] is 60.1 µM (inactive); in [2], 69.3 µM (inactive); in [3], > 100 µM (inactive); in experiment [4] it was 76.7 µM (inactive); in experiment [5], > 100 µM (inactive); in experiment [6], 31.4 µM (inactive). In addition, the GI50 in experiment [7] is 39.1 µM (inactive); in experiment [8] it was > 100 µM (inactive); in experiment [9], > 100 µM (inactive); in experiment [10], > 100 µM (inactive); in [11], 12.8 µM (inactive); in experiment [12], 59.3 µM (inactive). For the same compound, the GI50 in experiment [13] is 99.1 µM (inactive); in experiment [14], 33 µM (inactive); in experiment [15], > 100 µM (inactive); in experiment [16], > 100 µM (inactive); in experiment [17], 28.1 µM (inactive); in [18], > 100 µM (inactive). Also, the GI50 in experiment [19] was > 100 µM (inactive).
Take `CC1(O)CC(=O)c2c(cc3ccc(-c4c5c(c(O)c6c(O)cccc46)C(=O)CC(C)(O)C5)c(O)c3c2O)C1` (centres undefined): the GI50 in experiment [1] was 0.465 µM (active); in experiment [2], 0.125 µM (active); in experiment [3] it was 0.0442 µM (active); in experiment [4], 0.0647 µM (active); in experiment [5] it was 0.242 µM (active); in experiment [6], 0.409 µM (active). Further, the GI50 in experiment [7] is 0.298 µM (active); in experiment [8] it was 0.817 µM (active); in experiment [9] it was 0.406 µM (active); in experiment [10], 0.311 µM (active); in experiment [11], 0.422 µM (active); in experiment [12], 0.0574 µM (active). Further, the GI50 is 0.441 µM (active) in [13]; 0.611 µM (active) in experiment [14]; 2.01 µM (inactive) in [15]; 0.18 µM (active) in experiment [16]; 0.367 µM (active) in experiment [17]; 0.468 µM (active) in experiment [18]. Also, the GI50 in experiment [19] was 0.06 µM (active).
Regarding `CC(/C=C/c1ccc([N+](=O)[O-])o1)=N/N1CC(CN2CCOCC2)OC1=O` (centres undefined), the GI50 in experiment [1] is 32.6 µM (inactive); in experiment [2] it was 16.6 µM (inactive); in experiment [3], 16.3 µM (inactive); in experiment [4], 11.4 µM (inactive); in experiment [5] it was 13.6 µM (inactive); in experiment [6], 31.4 µM (inactive). Further, the GI50 in experiment [7] was 16.9 µM (inactive); in experiment [8] it was 24.9 µM (inactive); in experiment [9], 17.3 µM (inactive); in [10], 23.6 µM (inactive); in experiment [11], 22.9 µM (inactive); in experiment [12], 20.7 µM (inactive). Besides, the GI50 in [13] is 30.2 µM (inactive); in experiment [14] it was 47.3 µM (inactive); in [15], 52.2 µM (inactive); in experiment [16], 48.1 µM (inactive); in experiment [17], 15.6 µM (inactive); in experiment [18], 30.2 µM (inactive). Further, the GI50 in experiment [19] was 28.5 µM (inactive).
Take `N=C(N)NS(=O)(=O)c1ccc(NC(=O)c2ccc3nc4ccccc4c(Nc4ccc(S(N)(=O)=O)cc4)c3c2)cc1`: the GI50 in [1], in experiment [2], in [3], in experiment [4], in experiment [5] and in experiment [6] was > 100 µM (inactive) throughout. In addition, the GI50 in [7], in experiment [8], in [9], in experiment [10], in [11] and in experiment [12] was > 100 µM (inactive) throughout. Further, the GI50 in [13], in experiment [14], in experiment [15], in experiment [16], in experiment [17] and in [18] was > 100 µM (inactive) each time. Also, the GI50 in experiment [19] is > 100 µM (inactive).
With `COc1ccc(-n2c3c(c4cc(O)ccc42)C(=O)c2ccccc2C3=O)cc1`, the GI50 was 3.93 µM (inactive) in [1]; 0.682 µM (active) in [2]; 80.5 µM (inactive) in experiment [3]; 0.305 µM (active) in experiment [4]; 16.9 µM (inactive) in [5]; 3.94 µM (inactive) in [6]. For the same compound, the GI50 in experiment [7] was 30.7 µM (inactive); in experiment [8], 4.71 µM (inactive); in [9] it was > 100 µM (inactive); in [10], 2 µM (inactive); in experiment [11], 7.66 µM (inactive); in [12] it was 8.97 µM (inactive). The GI50 in experiment [13] was 4.61 µM (inactive); in experiment [14] it was 6.04 µM (inactive); in experiment [15], 0.404 µM (active); in experiment [16], 6.65 µM (inactive); in experiment [17], 10.4 µM (inactive); in experiment [18] it was > 100 µM (inactive). The GI50 in experiment [19] was 0.931 µM (active).
Turning to `CCCC(CCC)C(=O)O` [VALPROIC ACID], the GI50 in experiment [1] was 532 µM (inactive); in experiment [2] it was 5450 µM (inactive); in [3], 4530 µM (inactive); in experiment [4], 9730 µM (inactive); in experiment [5], 9380 µM (inactive); in [6], 3010 µM (inactive). Besides, the GI50 in experiment [7] is 6810 µM (inactive); in experiment [8] it was 6280 µM (inactive); in [9], > 100 µM (inactive); in [10], 14700 µM (inactive); in [11], 11200 µM (inactive); in experiment [12], > 100 µM (inactive). Also, the GI50 was 10900 µM (inactive) in experiment [13]; > 100 µM (inactive) in [14]; > 100 µM (inactive) in [15]; > 100 µM (inactive) in experiment [16]; 8510 µM (inactive) in experiment [17]; 8530 µM (inactive) in experiment [18]. Moreover, the GI50 in [19] was 8020 µM (inactive).
For the compound `Cc1ccc(C)c(/C(=N\N=C(N)N)C2CC2)c1`, the GI50 was 47.5 µM (inactive) in experiment [1]; 42.7 µM (inactive) in experiment [2]; 35.1 µM (inactive) in experiment [3]; 26.4 µM (inactive) in experiment [4]; 47.2 µM (inactive) in [5]; 29.3 µM (inactive) in [6]. Further, the GI50 in experiment [7] was 20.5 µM (inactive); in [8], 32.4 µM (inactive); in experiment [9], 39.6 µM (inactive); in [10] it was 63.4 µM (inactive); in experiment [11], 35.2 µM (inactive); in experiment [12], 20.7 µM (inactive). Moreover, the GI50 in experiment [13] is 58.1 µM (inactive); in experiment [14] it was 29.9 µM (inactive); in experiment [15], > 100 µM (inactive); in experiment [16] it was 48.9 µM (inactive); in [17], 37.6 µM (inactive); in [18], 33.1 µM (inactive). In addition, the GI50 in experiment [19] is 17.4 µM (inactive).
